One test deals with human orexin 2 receptor (Homo sapiens (Human), UniProt O43614). Description: Human orexin 2 receptor radioligand binding ([3H]-EMPA). To be noted: HEK293 stably expressing human orexin 2 receptor; [3H]-EMPA; apparent Ki; read-out: hOX2 Ki. As to the method: After centrifugation (2K×G, 5 min at 4° C.), the supernatant was aspirated and the pellets frozen and stored at −80° C. […] Each cell pellet from a 15 cm plate was resuspended in 10 mL, stored on ice, and homogenized for 45 sec just prior to addition to the reactions. Competition binding experiments in 96 well polypropylene plates were performed using [^3H]-EMPA (Moraveck Corporation, specific activity=29.6 Ci/mmol), diluted to a 5 nM concentration in PBS (2 nM final concentration). […] The final concentration of DMSO in the reactions is equal to or less than 0.1%. Total and nonspecific binding was determined in the absence and presence of […]. The total volume of each reaction is 200 μL (20 μL of diluted compounds, 80 μL of [^3H]-EMPA diluted in PBS and 100 μL of the cell suspension).
Chain of human orexin 2 receptor (O43614 whole entry): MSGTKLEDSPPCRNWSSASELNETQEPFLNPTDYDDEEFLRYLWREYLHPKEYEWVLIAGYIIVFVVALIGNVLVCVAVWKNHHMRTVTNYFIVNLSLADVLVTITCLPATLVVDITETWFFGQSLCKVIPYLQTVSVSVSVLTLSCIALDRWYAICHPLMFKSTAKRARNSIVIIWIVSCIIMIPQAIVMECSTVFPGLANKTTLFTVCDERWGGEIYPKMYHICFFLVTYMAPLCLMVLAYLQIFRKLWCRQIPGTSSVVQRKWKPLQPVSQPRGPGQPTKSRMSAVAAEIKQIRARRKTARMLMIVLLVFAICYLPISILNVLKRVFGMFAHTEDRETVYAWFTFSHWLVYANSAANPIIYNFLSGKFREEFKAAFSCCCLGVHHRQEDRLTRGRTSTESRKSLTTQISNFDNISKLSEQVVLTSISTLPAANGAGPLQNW
The plates were washed 3 times by aspirating 30 ml PBS through the plates. Plates were dried in 55° C. oven for 60 min, scintillation fluid was added, and the radioactivity was counted on a Topcount (Packard).

The target in a further test is human orexin 1 receptor (Homo sapiens, UniProt O43613). Description: Human orexin 1 receptor radioligand binding. To be noted: CHO cells stably expressing human orexin 1 receptor; apparent Ki; read-out: hOX1 Ki. As to the method: The in vitro affinity of the compounds of the invention for the rat/human orexin 1 and human orexin 2 receptors was determined by competitive radioligand binding using [^3H](1-(5-(2-fluoro-phenyl)-2-methyl-thiazol-4-yl)-1-((S)-2-(5-phenyl-(1,3,4)oxadiazol-2-ylmethyl)-pyrrolidin-1-yl)-methanone)(Langmead et al., 2004) and [^3H]EMPA (n-ethyl-2[96-methoxy-pyridin-3-yl)-(toluene-2-sulfonyl)-amino]-N-pyridin-3-ylmethyl acetamide), respectively (Langmead et al., 2004, British Journal of Pharmacology 141:340-346; Malherbe et al., 2004, British Journal of Pharmacology 156:1326-41).
Human Embryonic Kidney 293 cells (HEK293) stably expressing rat orexin 1 receptor (Genebank accession number NM_001525) or Chinese ovary cells (CHO) stably expressing human orexin 1 receptor (Genebank accession number NM_001526) were grown to confluency in DMEM (Hyclone, cat #SH30022), 10% FBS, 1× Pen/Strep, 1× sodium pyruvate, 10 mM HEPES, 600 µg/mL G418 and DMEM/F12 (Gibco, Cat #11039), 10% FBS, 1× Pen/Strep, 600 µg/mL G418 media, respectively on 150 cm^2 tissue culture plates, washed with 5 mM EDTA in PBS (HyClone Dulbecco's Phoshpate Buffered Saline 1× with Calcium and Magnesium, Cat #SH30264.01, hereafter referred to simply as PBS) and scraped into 50 ml tubes. After centrifugation (2K×G, 5 min at 4° C.), the supernatant was aspirated and the pellets frozen and stored at −80° C. Cells were resuspended in PBS in the presence of 1 tablet of protease inhibitor cocktail (Roche, Cat. #11836145001) per 50 mL. Each cell pellet from a 15 cm plate was resuspended in 10 mL, stored on ice, and homogenized for 45 sec prior to addition to the reactions. Competition binding experiments in 96 well polypropylene plates were performed using [^3H]-(1-(5-(2-fluoro-phenyl)-2-methyl-thiazol-4-yl)-1-((S)-2-(5-phenyl-(1,3,4)oxadiazol-2-ylmethyl)-pyrrolidin-1-yl)-methanone) (Moraveck Corporation, specific activity=35.3 Ci/mmol), diluted to a 10 nM concentration in PBS (4 nM final). […] The final concentration of DMSO in the reactions is equal to or less than 0.1%. Total and nonspecific binding was determined in the absence and presence of 10 μM almorexant. The total volume of each reaction is 200 μL (20 μL of diluted compounds, 80 μL of [3H]-(1-(5-(2-fluoro-phenyl)-2-methyl-thiazol-4-yl)-1-((S)-2-(5-phenyl-(1,3,4)oxadiazol-2-ylmethyl)-pyrrolidin-1-yl)-methanone) diluted in PBS and 100 μL of the cell suspension). Reactions were run for 60 min at room temperature and terminated by filtration through GF/C filter plates (PerkinElmer, Cat. #6005174) presoaked in 0.3% polyethylenimine using the cell harvester (PerkinElmer Filtermate). The plates were washed 3 times by aspirating 30 ml PBS through the plates. Plates were dried in 55° C. oven for 60 min, scintillation fluid was added, and the radioactivity was counted on a Topcount (Packard).

Another test has as its target rat orexin 1 receptor (Rattus norvegicus, UniProt P56718). Briefly: Rat orexin 1 receptor radioligand binding. As to conditions: HEK293 cells stably expressing rat orexin 1 receptor; apparent Ki; read-out: rOX1 Ki. As to the method:
After centrifugation (2K×G, 5 min at 4° C.), the supernatant was aspirated and the pellets frozen and stored at −80° C. […] Each cell pellet from a 15 cm plate was resuspended in 10 mL, stored on ice, and homogenized for 45 sec prior to addition to the reactions. Competition binding experiments in 96 well polypropylene plates were performed using [^3H]-(1-(5-(2-fluoro-phenyl)-2-methyl-thiazol-4-yl)-1-((S)-2-(5-phenyl-(1,3,4)oxadiazol-2-ylmethyl)-pyrrolidin-1-yl)-methanone) (Moraveck Corporation, specific activity=35.3 Ci/mmol), diluted to a 10 nM concentration in PBS (4 nM final). […] The final concentration of DMSO in the reactions is equal to or less than 0.1%. Total and nonspecific binding was determined in the absence and presence of 10 μM almorexant. The total volume of each reaction is 200 μL (20 μL of diluted compounds, 80 μL of [3H]-(1-(5-(2-fluoro-phenyl)-2-methyl-thiazol-4-yl)-1-((S)-2-(5-phenyl-(1,3,4)oxadiazol-2-ylmethyl)-pyrrolidin-1-yl)-methanone) diluted in PBS and 100 μL of the cell suspension). […] The plates were washed 3 times by aspirating 30 ml PBS through the plates. Plates were dried in 55° C. oven for 60 min, scintillation fluid was added, and the radioactivity was counted on a Topcount (Packard).

Results on 16 compounds are retold here after patent US9115117B2, “Substituted piperidine compounds and their use as orexin receptor modulators” (JANSSEN PHARMACEUTICA NV, priority 2013, dated 2015).

Structures can show the parent of a compound that is named as a salt.

Turning to `Cc1ccc(-c2ncccn2)c(C(=O)N2CCC[C@@H](Nc3ccc(C(F)(F)F)cn3)[C@@H]2C)n1` (racemic) [Example 23, (±)-trans-(2-methyl-3-((5-(trifluoromethyl)pyridin-2-yl)amino)piperidin-1-yl)(6-methyl-3-(pyrimidin-2-yl)pyridin-2-yl)methanone hydrochloride], the Ki on human orexin 2 receptor was found to be 208 nM; at human orexin 1 receptor, 23 nM.

Regarding `Cc1cc(C)nc(N[C@@H]2CCCN(C(=O)c3c(F)cccc3-c3ncccn3)[C@H]2C)n1` (racemic) [Example 2, (±)-trans-(3-((4,6-dimethylpyrimidin-2-yl)amino)-2-methylpiperidin-1-yl)(2-fluoro-6-(pyrimidin-2-yl)phenyl)methanone], the Ki at human orexin 2 receptor was 217 nM; at human orexin 1 receptor, 400 nM.

For `Cc1cc(C)nc(N[C@@H]2CCCN(C(=O)c3c(F)cccc3-n3nccn3)[C@H]2C)n1` (racemic) [Example 3, (±)-trans-(3-((4,6-dimethylpyrimidin-2-yl)amino)-2-methylpiperidin-1-yl)(2-fluoro-6-(2H-1,2,3-triazol-2-yl)phenyl)methanone], the Ki on human orexin 2 receptor is 260 nM; at human orexin 1 receptor, 1060 nM.

Take `C[C@H]1[C@H](Nc2ncc(C(F)(F)F)cn2)CCCN1C(=O)c1ccccc1-n1nccn1` (racemic) [Example 35, (±)-trans-(2-(2H-1,2,3-triazol-2-yl)phenyl)(2-methyl-3-((5-(trifluoromethyl)pyrimidin-2-yl)amino)piperidin-1-yl)methanone]: the Ki on human orexin 1 receptor amounted to 29 nM.

On to `Cc1ccc(-n2nccn2)c(C(=O)N2CCC[C@@H](Nc3cc(C)nc(C(F)(F)F)n3)[C@@H]2C)c1` (racemic) [Example 8, (±)-trans-(5-methyl-2-(2H-1,2,3-triazol-2-yl)phenyl)(2-methyl-3-((6-methyl-2-(trifluoromethyl)pyrimidin-4-yl)amino)piperidin-1-yl)methanone], for which the Ki came to 587 nM on human orexin 2 receptor and 462 nM on human orexin 1 receptor.

`C[C@H]1[C@H](Nc2nccc(C(F)(F)F)n2)CCCN1C(=O)c1c(F)cccc1-n1nccn1` (racemic) [Example 10, (±)-trans-(2-fluoro-6-(2H-1,2,3-triazol-2-yl)phenyl)(2-methyl-3-((4-(trifluoromethyl)pyrimidin-2-yl)amino)piperidin-1-yl)methanone]: the Ki at human orexin 2 receptor came out at 144 nM; at human orexin 1 receptor it was 315 nM.

For the compound `CCOc1ccccc1C(=O)N1CCC[C@@H](Nc2ccc(Br)cn2)[C@H]1C` (racemic) [Example 59, (±)-cis-(3-(5-bromopyridin-2-yl)amino)-2-methylpiperidin-1-yl)(2-ethoxyphenyl)methanone], the figures for the Ki on human orexin 2 receptor and on rat orexin 1 receptor were greater than 10000 nM and 1800 nM, respectively.

Regarding `Cc1ccc(C(=O)N2CCC[C@@H](Nc3nccc(C(F)(F)F)n3)[C@@H]2C)c(-n2ccnn2)n1` (racemic) [Example 11, (±)-trans-(6-methyl-2-(1H-1,2,3-triazol-1-yl)pyridin-3-yl)(2-methyl-3-((4-(trifluoromethyl)pyrimidin-2-yl)amino)piperidin-1-yl)methanone], on human orexin 1 receptor, the Ki amounted to 9000 nM.

With `Cc1cc(C)nc(N[C@@H]2CCCN(C(=O)c3cc(F)ccc3-n3nccn3)[C@H]2C)n1` (racemic) [Example 5, (±)-trans-(3-((4,6-dimethylpyrimidin-2-yl)amino)-2-methylpiperidin-1-yl)(5-fluoro-2-(2H-1,2,3-triazol-2-yl)phenyl)methanone], the figures for the Ki at human orexin 2 receptor and at human orexin 1 receptor were 116 nM and 560 nM, respectively.

Take `Cc1cc(C)nc(N[C@@H]2CCCN(C(=O)c3ccccc3-n3nccn3)[C@H]2C)n1` (racemic) [Example 4, (±)-trans-(2-(2H-1,2,3-triazol-2-yl)phenyl)(3-((4,6-dimethylpyrimidin-2-yl)amino)-2-methylpiperidin-1-yl)methanone]: the results for the Ki on human orexin 2 receptor and at human orexin 1 receptor were 40 nM and 78 nM, respectively.

For the compound `COc1c(F)cccc1C(=O)N1CCC[C@@H](Nc2cnc3ccccc3n2)[C@@H]1C` (racemic) [Example 50, (±)-trans-(3-fluoro-2-methoxyphenyl)(2-methyl-3-(quinoxalin-2-ylamino)piperidin-1-yl)methanone], the Ki was found to be 353 nM on human orexin 2 receptor and 396 nM on rat orexin 1 receptor.

As for `C[C@H]1[C@H](Nc2ccccn2)CCCN1C(=O)c1ccccc1-n1nccn1` (racemic) [Example 36, (±)-trans-(2-(2H-1,2,3-triazol-2-yl)phenyl)(2-methyl-3-(pyridin-2-ylamino)piperidin-1-yl)methanone], the Ki at human orexin 2 receptor is 1500 nM; at rat orexin 1 receptor, 690 nM.

Turning to `C[C@H]1[C@H](Nc2ccc(F)cn2)CCCN1C(=O)c1ccccc1-n1nccn1` [Example 34, (2-(2H-1,2,3-triazol-2-yl)phenyl)((2S,3R)-3-((5-fluoropyridin-2-yl)amino)-2-methylpiperidin-1-yl)methanone], the figures for the Ki on human orexin 2 receptor and at rat orexin 1 receptor were 700 nM and 355 nM, respectively.

In the case of `Cc1cc(N[C@@H]2CCCN(C(=O)c3cc(F)ccc3-c3ncccn3)[C@H]2C)nc(C(F)(F)F)n1` (racemic) [Example 9, (±)-trans-(5-fluoro-2-(pyrimidin-2-yl)phenyl)(2-methyl-3-((6-methyl-2-(trifluoromethyl)pyrimidin-4-yl)amino)piperidin-1-yl)methanone], the Ki on human orexin 2 receptor is 2050 nM; at human orexin 1 receptor, 6710 nM.

`COc1c(F)cccc1C(=O)N1CCC[C@@H](Nc2nc3cc(Cl)ccc3o2)[C@H]1C` (racemic) [Example 62, (±)-cis-(3-((5-chlorobenzo[d]oxazol-2-yl)amino)-2-methylpiperidin-1-yl)(3-fluoro-2-methoxyphenyl)methanone]: the Ki turned out to be 5700 nM at human orexin 2 receptor and 1800 nM on rat orexin 1 receptor.

As to `COc1c(F)cccc1C(=O)N1CCC[C@@H](Nc2cnc3ccccc3n2)[C@H]1C` (racemic) [Example 64, (±)-cis-(3-fluoro-2-methoxyphenyl)(2-methyl-3-(quinoxalin-2-ylamino)piperidin-1-yl)methanone], the Ki on human orexin 2 receptor is 1300 nM; at rat orexin 1 receptor, 1100 nM.
